These are literature values, as cited in patent US20190201327A1 (AMPERSAND BIOPHARMACEUTICALS, INC., priority 2017, published 2019).

The data set has as its system neovascularization.

The structures appear in SMILES notation.

In the case of `CC1=C(CO)C(=O)O[C@@H]([C@@H](C)[C@H]2CC[C@H]3[C@@H]4C[C@H]5O[C@]56[C@@H](O)C(N=[N+]=[N-])CC(=O)[C@]6(C)[C@H]4CC[C@]23C)C1` (stereo partly shown) [3-azido WFA, 3-azido Withaferin A], the neovascularization in vivo entry is “abrogated neovascularization in vivo in a dose dependent manner”.
